Assay results taken from patent publication US20200317660A1, “Quinazolinone Compound and Application Thereof” (LUOXIN PHARMACEUTICAL (SHANGHAI) CO., LTD., priority 2017, published 2020).

Legend:
PI3Kδ = target: T1, PI3Kδ (Homo sapiens, UniProt O00329); test: In vitro test of enzyme activity (ADP-Glo lipokinase), PI3K delta; format: biochemical; settings: 40 μM ATP, 50 μM PIP2:3PS, 120 min
T1 construct: purchased Millipore 14-604-K

PI3Kβ = target: T2, PI3Kβ (Homo sapiens, UniProt P42338); test: In vitro test of enzyme activity (ADP-Glo lipokinase), PI3K beta; format: biochemical; settings: 40 μM ATP, 50 μM PIP2:3PS, 120 min
T2 construct: purchased Promega V1751
T2 sequence (P42338 whole entry): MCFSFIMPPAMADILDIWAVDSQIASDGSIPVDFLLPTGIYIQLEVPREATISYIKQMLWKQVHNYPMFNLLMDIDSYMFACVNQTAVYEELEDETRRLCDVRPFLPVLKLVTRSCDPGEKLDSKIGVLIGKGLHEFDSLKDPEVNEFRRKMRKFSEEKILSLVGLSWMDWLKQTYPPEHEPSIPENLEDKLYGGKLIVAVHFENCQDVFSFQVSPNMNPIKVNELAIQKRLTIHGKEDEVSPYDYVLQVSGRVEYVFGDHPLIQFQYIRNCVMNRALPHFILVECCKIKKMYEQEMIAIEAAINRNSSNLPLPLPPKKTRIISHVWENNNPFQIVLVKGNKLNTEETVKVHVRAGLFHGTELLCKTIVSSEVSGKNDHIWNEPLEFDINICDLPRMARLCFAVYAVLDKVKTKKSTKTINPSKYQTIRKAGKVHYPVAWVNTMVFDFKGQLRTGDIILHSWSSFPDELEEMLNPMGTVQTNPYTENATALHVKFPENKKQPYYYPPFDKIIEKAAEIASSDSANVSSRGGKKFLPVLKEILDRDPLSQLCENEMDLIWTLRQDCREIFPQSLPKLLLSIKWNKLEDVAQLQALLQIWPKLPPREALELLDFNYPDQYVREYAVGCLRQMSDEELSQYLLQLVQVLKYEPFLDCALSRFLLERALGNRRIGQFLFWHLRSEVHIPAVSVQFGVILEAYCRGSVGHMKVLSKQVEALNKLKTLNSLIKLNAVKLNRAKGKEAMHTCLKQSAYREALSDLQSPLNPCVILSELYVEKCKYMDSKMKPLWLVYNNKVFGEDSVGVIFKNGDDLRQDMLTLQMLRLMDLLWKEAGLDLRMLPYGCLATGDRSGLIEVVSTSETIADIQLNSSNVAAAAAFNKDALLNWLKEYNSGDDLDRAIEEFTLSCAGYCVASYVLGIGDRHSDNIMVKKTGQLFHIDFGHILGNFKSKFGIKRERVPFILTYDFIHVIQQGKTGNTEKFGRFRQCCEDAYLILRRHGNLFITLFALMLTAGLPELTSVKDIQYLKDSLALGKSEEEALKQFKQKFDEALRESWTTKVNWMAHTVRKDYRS
T2 sequence (P27986 whole entry partner): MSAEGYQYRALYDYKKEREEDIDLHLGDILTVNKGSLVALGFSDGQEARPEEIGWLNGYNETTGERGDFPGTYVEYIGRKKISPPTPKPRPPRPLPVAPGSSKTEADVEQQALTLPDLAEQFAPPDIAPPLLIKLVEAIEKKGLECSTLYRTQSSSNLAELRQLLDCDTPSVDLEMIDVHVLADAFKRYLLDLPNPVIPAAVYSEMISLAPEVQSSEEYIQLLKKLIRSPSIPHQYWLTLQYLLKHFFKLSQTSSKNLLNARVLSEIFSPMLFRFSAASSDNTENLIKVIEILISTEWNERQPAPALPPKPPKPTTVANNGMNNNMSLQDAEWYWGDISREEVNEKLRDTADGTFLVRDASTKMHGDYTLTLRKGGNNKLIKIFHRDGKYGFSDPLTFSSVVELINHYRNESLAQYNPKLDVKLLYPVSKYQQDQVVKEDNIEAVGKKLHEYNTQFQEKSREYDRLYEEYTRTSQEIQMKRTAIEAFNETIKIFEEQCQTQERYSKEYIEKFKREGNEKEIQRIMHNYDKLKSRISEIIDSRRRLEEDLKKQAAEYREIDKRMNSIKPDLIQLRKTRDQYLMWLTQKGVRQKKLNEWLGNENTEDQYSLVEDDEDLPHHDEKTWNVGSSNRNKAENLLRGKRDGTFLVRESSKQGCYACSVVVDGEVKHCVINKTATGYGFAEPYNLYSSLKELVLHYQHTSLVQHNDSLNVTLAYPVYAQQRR

[1] = tested on: human ovarian cancer SK-OV-3 cells; test: Subcutaneous xenograft tumor model of human ovarian cancer SK-OV-3 cells; format: in vivo, BALB/c nude mouse; settings: SK-OV-3 xenograft, 30 mpk
Method: (2) BALB/c nude mouse subcutaneous xenograft tumor model of human ovarian cancer SK-OV-3 cells
Human ovarian cancer SK-OV-3 cells (ECACC-91091004) were subjected to in vitro monolayer culture, and the culture conditions were: McCoy's 5a medium (Gibco, 16600-082) with 10% fetal bovine serum and 100 U/mL penicillin and 100 µg/mL streptomycin, 37° C. and 5% CO2 incubator. The cells were passaged by digestion with trypsin-EDTA twice a week. When the cells saturation reached 80%-90%, the cells were collected, counted, and inoculated.
0.2 mL of 10×10^6 SK-OV-3 cells were subcutaneously inoculated into the right back of each nude mouse (PBS:Matrigel=1:1). When the average tumor volume reached 200 mm^3, 48 tumor-bearing mice were divided into 8 groups by stratified random method with 6 mice in each group, which were administered on the day of grouping.
Preparation of Test Substance
Vehicle group: 2.0 g of methyl cellulose was weighed in a 500 mL glass bottle, followed by addition of 399.2 mL of ddH2O and 0.8 mL of Tween 80. […]
The experimental index was to evaluate whether the tumor growth was inhibited, delayed or cured. The diameter of the tumor was measured with a vernier caliper twice a week. […]
The antitumor efficacy of the compound was evaluated by TGI (%) or relative tumor proliferation rate T/C (%). […]

T1 sequence (O00329 whole entry): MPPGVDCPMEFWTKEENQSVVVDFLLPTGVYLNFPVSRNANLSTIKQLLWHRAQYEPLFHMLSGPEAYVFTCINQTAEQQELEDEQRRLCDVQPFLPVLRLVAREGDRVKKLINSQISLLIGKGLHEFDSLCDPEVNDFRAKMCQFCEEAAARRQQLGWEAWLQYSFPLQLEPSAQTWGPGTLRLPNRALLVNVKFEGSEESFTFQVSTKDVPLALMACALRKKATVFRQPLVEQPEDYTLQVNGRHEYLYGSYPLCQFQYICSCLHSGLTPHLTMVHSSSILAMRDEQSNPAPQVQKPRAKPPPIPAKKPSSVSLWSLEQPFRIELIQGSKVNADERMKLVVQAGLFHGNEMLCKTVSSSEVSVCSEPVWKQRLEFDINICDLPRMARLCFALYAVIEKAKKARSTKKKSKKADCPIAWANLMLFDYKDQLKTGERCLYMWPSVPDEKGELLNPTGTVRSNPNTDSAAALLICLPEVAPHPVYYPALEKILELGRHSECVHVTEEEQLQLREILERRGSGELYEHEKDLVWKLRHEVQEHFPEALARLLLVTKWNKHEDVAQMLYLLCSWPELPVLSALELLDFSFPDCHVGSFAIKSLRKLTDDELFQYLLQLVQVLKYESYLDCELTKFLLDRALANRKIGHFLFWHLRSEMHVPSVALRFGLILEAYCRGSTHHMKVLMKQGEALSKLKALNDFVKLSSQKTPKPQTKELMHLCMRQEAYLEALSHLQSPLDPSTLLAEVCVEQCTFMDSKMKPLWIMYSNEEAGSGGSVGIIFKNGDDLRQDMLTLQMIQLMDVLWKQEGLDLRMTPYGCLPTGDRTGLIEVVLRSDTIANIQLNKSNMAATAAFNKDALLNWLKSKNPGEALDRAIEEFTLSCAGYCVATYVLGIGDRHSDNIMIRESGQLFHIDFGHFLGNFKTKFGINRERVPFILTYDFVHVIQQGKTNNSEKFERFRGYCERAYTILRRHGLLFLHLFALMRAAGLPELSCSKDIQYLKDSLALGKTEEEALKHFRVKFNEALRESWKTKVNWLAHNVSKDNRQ
T1 sequence (P27986 whole entry partner): as the sequence (P27986 whole entry partner) above

IC50 (PI3Kδ): 2.1 nM
IC50 (PI3Kβ): 33 nM
SMILES: CNC(=O)CCCn1cnc2ccc(-c3cnc(OC)c(NS(=O)(=O)c4ccc(F)cc4Cl)c3)cc2c1=O [WX198]
TGI % [1]: 62.6%
